{
  "source": "patent US20080302375A1",
  "about": "(priority 2003, published 2008)",
  "origin": "cited, not measured here",
  "details": "upon the smoking of a cigarette",
  "data": [
    {"smiles": "CN1CCCC1c1cccnc1", "note": "(stereo not shown) [nicotine, 3-(1-methyl-2-pyrrolidinyl)-pyridine]", "values": [
      {"measurement": "time for nicotine to reach the brain after inhalation", "value": "ten"}
    ]}
  ]
}
